One assay has as its target recombinant human ACC2 (Homo sapiens (Human), UniProt O00763). The assay can be described thus: Measurement of inhibitory activity on human ACC2 (MALDI-TOF MS, conversion of acetyl CoA to malonyl CoA). The assay is classed as biochemical. To be noted: recombinant human ACC2, room temperature, 1 to 3 hours. The text has this:
After a cDNA encoding human ACC2 (27 amino acid residue to 2458 amino acid residues from the N-terminus) was cloned from human kidney cDNA library (Clontech), human ACC2 gene containing His-tag sequence at 5′ terminus was inserted into pFastBac1 (Invitrogen). Recombinant baculovirus was generated using Bac-to-Bac baculovirus expression system (Invitrogen) according to the manufacturer's protocol. To express human ACC2, Sf-9 cells were infected with recombinant baculovirus. After infected cells were disrupted, the filtrated lysate was subjected to Ni-affinity chromatography and anion-exchange chromatography. The fractions containing human ACC2 protein were pooled as recombinant human ACC2 solution.
(§1) Recombinant human ACC1 and recombinant human ACC2, which were prepared by the method mentioned above, were preincubated with assay buffer solution (50 mM HEPES-KOH (pH 7.4), 10 mM magnesium chloride, 6-10 mM potassium citrate, 4 mM reduced form of glutathione, 1.5 mg/ml bovine serum albumin) for one hour. Then, 0.2 μL of each this invention compound solution (in DMSO) were dispensed to 384-well microplate, 5 μL of the preincubated enzyme solution and 5 μL of substrate solution (50 mM HEPES-KOH (pH 7.4), 1 mM ATP, 0.8 mM acetyl CoA and 25-50 mM potassium bicarbonate) were added to microplate. After centrifugation and shaking, the reaction mixtures were incubated in a humidified box at room temperature for 1 to 3 hours. After the incubation, the enzyme reactions were stopped by the addition of EDTA. Then, after the samples were cocrystallized with CHCA (α-cyano-4-hydroxy cinnamic acid) matrices on MALDI target plate, by using the matrix assist laser […] time-of-flight mass spectrometer (MALDI-TOF MS), samples were measured in reflector negative mode. Deprotonated ions of acetyl CoA (AcCoA) of substrate and malonyl CoA (MalCoA) of the reaction product were detected, then, the conversion rates of acetyl CoA to malonyl CoA was calculated by the intensity of [MalCoA-H]−/(Intensity of [MalCoA-H].+Intensity of [AcCoA-H]—) using each signal strength. […] In addition, potassium citrate concentrations in assay buffer solution, potassium hydrogen carbonate concentrations in substrate solution and incubation time were adjusted by each lot of enzyme.

The target of a further assay is recombinant human ACC1 (Homo sapiens (Human), UniProt Q13085). As to the kind of experiment: Measurement of inhibitory activity on human ACC1 (MALDI-TOF MS, conversion of acetyl CoA to malonyl CoA). The assay is classed as biochemical. Conditions: recombinant human ACC1, room temperature, 1 to 3 hours.
From the text: After a cDNA encoding human ACC1 (1 amino acid residue to 2346 amino acid residues from the N-terminus) was cloned from human liver cDNA library (BioChain), human ACC1 gene containing myc-tag and His-tag sequence at 3′ terminus was inserted into pIEXBAC3 (Novagen). Recombinant baculovirus was generated using FlashBACGOLD system (Oxford Expression Technologies) according to the manufacturer's protocol. To express human ACC1, Sf-9 cells were infected with recombinant baculovirus. After infected cells were disrupted, the filtrated lysate was subjected to Ni-affinity chromatography and anion-exchange chromatography. The fractions containing human ACC1 protein were pooled as recombinant human ACC1 solution.
as §1

Sequence of recombinant human ACC2 (O00763 27-2458): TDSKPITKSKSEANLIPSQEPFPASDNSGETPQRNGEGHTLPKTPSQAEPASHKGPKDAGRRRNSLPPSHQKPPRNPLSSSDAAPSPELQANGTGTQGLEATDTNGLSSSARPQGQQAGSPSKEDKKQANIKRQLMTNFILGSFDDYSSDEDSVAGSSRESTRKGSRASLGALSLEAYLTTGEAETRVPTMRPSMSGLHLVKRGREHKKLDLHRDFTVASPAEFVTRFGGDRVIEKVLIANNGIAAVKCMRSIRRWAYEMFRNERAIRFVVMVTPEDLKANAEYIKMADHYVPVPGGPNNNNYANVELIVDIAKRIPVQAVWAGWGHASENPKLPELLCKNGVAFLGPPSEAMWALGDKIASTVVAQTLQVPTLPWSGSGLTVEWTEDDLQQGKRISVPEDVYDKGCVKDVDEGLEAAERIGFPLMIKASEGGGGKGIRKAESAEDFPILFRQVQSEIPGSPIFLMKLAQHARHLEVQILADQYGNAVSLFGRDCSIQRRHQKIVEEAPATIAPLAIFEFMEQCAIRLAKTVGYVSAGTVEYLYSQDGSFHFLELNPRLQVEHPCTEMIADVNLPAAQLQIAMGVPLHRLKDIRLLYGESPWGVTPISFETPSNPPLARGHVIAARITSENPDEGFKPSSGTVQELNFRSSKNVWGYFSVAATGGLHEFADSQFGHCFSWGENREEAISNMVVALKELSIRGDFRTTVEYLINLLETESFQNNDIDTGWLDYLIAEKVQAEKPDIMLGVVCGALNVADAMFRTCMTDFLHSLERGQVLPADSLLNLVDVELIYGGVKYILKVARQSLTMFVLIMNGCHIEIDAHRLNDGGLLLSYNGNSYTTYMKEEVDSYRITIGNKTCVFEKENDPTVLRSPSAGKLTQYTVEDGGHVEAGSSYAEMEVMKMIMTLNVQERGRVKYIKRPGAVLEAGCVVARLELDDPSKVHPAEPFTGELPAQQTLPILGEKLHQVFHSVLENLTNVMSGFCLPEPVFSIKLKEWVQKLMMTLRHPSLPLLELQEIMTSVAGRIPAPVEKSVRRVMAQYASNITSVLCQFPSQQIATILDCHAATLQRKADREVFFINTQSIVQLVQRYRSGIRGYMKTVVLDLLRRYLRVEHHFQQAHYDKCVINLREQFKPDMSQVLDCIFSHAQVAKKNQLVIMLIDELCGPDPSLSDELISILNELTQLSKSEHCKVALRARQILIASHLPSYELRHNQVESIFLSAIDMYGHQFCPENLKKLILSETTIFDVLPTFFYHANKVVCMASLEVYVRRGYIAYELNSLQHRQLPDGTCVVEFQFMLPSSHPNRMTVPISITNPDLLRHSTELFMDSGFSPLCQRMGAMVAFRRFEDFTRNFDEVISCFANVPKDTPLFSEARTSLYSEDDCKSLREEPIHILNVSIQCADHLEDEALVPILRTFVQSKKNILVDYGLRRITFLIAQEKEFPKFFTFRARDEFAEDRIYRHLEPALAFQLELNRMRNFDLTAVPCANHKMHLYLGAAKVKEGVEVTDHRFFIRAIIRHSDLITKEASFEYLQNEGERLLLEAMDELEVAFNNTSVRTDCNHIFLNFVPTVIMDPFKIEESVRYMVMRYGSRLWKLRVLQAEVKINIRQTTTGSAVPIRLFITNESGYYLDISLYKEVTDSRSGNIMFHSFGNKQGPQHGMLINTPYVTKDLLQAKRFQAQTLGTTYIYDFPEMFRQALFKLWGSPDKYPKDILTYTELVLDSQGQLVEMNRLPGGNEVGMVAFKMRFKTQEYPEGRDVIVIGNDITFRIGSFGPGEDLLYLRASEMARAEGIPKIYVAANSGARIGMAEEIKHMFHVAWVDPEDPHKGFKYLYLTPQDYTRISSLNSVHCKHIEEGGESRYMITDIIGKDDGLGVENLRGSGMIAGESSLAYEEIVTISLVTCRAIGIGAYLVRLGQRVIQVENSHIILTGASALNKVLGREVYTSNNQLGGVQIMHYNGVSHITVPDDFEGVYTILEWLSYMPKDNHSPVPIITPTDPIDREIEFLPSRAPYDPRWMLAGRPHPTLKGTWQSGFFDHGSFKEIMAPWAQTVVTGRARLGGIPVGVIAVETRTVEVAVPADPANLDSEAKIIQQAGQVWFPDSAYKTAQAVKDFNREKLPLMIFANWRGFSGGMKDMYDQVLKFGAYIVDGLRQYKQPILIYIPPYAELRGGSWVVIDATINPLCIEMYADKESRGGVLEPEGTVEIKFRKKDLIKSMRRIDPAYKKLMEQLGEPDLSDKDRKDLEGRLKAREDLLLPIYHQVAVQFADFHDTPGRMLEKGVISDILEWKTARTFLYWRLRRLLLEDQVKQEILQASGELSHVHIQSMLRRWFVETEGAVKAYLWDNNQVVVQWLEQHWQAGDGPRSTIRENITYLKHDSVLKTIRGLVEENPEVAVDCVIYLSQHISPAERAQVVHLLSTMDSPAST

A word on the IC50: it is the concentration at which inhibition is half-maximal. For the compound `CC(=O)N[C@@H](C)CO[C@H]1CC[C@H](Oc2nc3ncc(OC4CC4)cc3n2C)CC1` [Example I-199], the values for the IC50 on recombinant human ACC2 and at recombinant human ACC1 were 730 nM and over 100000 nM, respectively.
For `Cn1c(O[C@H]2CC[C@H](OC[C@H](CF)NC(=O)C3CC3)CC2)nc2c(F)cc(OCC(F)F)c(F)c21` [Example I-233], in that order: 31 nM and over 100000 nM.
On to `C[C@@H](CO[C@H]1CC[C@H](Oc2nc3c(F)cc(OCC(F)F)c(F)c3n2C)CC1)NS(N)(=O)=O` [Example I-242], for which the IC50 on recombinant human ACC2 was 120 nM; on recombinant human ACC1, over 100000 nM.
Take `CC(=O)N[C@@H](C)CC(F)(F)[C@@H]1CC[C@@H](Oc2nc3c(F)cc(OCC(F)F)c(F)c3n2C)CO1` [Example I-230]: the IC50 was 89 nM on recombinant human ACC2 and over 100000 nM on recombinant human ACC1.
For `C[C@@H](CO[C@H]1CC[C@H](Oc2nc3c(F)cc(OCC(F)F)c(Cl)c3n2C)CC1)NS(N)(=O)=O` [Example I-248], in that order: 160 nM and over 100000 nM.

The values above are taken from patent US10233156B2, “9-membered fused ring derivative” (Shionogi & Co., Ltd., priority 2015, dated 2019).
